#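 Growth conditions: 96-well plates. Treatment: test compound, 48 hours, 5 concentrations. Analysis: linear interpolation between bracketing concentrations; unreached endpoints set to highest concentration. The concentration for full growth arrest is given as TGI.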
# Columns and labels:
# Assay in all cases: NCI anticancer screen, dose series, 48 h
# 786-0 renal = test system: 786-0 renal
# A498 renal = test system: A498 renal
# A549 NSCLC = test system: A549 NSCLC
# ACHN renal = test system: ACHN renal
# BT-549 breast = test system: BT-549 breast
# CAKI-1 renal = test system: CAKI-1 renal
# CCRF-CEM leukemia = test system: CCRF-CEM leukemia
# COLO 205 colon = test system: COLO 205 colon
# DU-145 prostate = test system: DU-145 prostate
# EKVX NSCLC = test system: EKVX NSCLC
# HCC-2998 colon = test system: HCC-2998 colon
# HCT-116 colon = test system: HCT-116 colon
# HCT-15 colon = test system: HCT-15 colon
# HL-60(TB) leukemia = test system: HL-60(TB) leukemia
# HOP-92 NSCLC = test system: HOP-92 NSCLC
# HS 578T breast = test system: HS 578T breast
# HT29 colon = test system: HT29 colon
# IGROV1 ovarian = test system: IGROV1 ovarian
# K-562 leukemia = test system: K-562 leukemia
# KM12 colon = test system: KM12 colon
# LOX IMVI melanoma = test system: LOX IMVI melanoma
# M14 melanoma = test system: M14 melanoma
# MALME-3M melanoma = test system: MALME-3M melanoma
# MCF7 breast = test system: MCF7 breast
# MDA-MB-231 breast = test system: MDA-MB-231 breast
# MDA-MB-435 = test system: MDA-MB-435
# MDA-N = test system: MDA-N
# MOLT-4 leukemia = test system: MOLT-4 leukemia
# NCI-H226 lung = test system: NCI-H226 lung
# NCI-H23 lung = test system: NCI-H23 lung
# NCI-H460 lung = test system: NCI-H460 lung
# NCI-H522 lung = test system: NCI-H522 lung
# NCI/ADR-RES ovarian = test system: NCI/ADR-RES ovarian
# OVCAR-3 ovarian = test system: OVCAR-3 ovarian
# OVCAR-4 ovarian = test system: OVCAR-4 ovarian
# OVCAR-5 ovarian = test system: OVCAR-5 ovarian
# OVCAR-8 ovarian = test system: OVCAR-8 ovarian
# PC-3 prostate = test system: PC-3 prostate
# RPMI-8226 leukemia = test system: RPMI-8226 leukemia
# RXF 393 renal = test system: RXF 393 renal
# SF-295 CNS = test system: SF-295 CNS
# SF-539 CNS = test system: SF-539 CNS
# SK-MEL-2 melanoma = test system: SK-MEL-2 melanoma
# SK-MEL-28 melanoma = test system: SK-MEL-28 melanoma
# SK-MEL-5 melanoma = test system: SK-MEL-5 melanoma
# SK-OV-3 ovarian = test system: SK-OV-3 ovarian
# SNB-19 CNS = test system: SNB-19 CNS
# SNB-75 CNS = test system: SNB-75 CNS
# SR leukemia = test system: SR leukemia
# SW-620 colon = test system: SW-620 colon
# T-47D breast = test system: T-47D breast
# TK-10 renal = test system: TK-10 renal
# U251 CNS = test system: U251 CNS
# UACC-257 melanoma = test system: UACC-257 melanoma
# UACC-62 melanoma = test system: UACC-62 melanoma
# UO-31 renal = test system: UO-31 renal
# HOP-62 NSCLC = test system: HOP-62 NSCLC
# SF-268 CNS = test system: SF-268 CNS
# SN12C renal = test system: SN12C renal
smiles,measurement,setting,value
COc1ccc(NC2=NCCO2)c2c1CCCC2,TGI,786-0 renal,> 100 µM
same,TGI,A498 renal,> 100 µM
same,TGI,A549 NSCLC,> 100 µM
same,TGI,ACHN renal,> 100 µM
same,TGI,BT-549 breast,> 100 µM
same,TGI,CAKI-1 renal,> 100 µM
same,TGI,CCRF-CEM leukemia,86 µM
same,TGI,COLO 205 colon,> 100 µM
same,TGI,DU-145 prostate,> 100 µM
same,TGI,EKVX NSCLC,> 100 µM
same,TGI,HCC-2998 colon,> 100 µM
same,TGI,HCT-116 colon,> 100 µM
same,TGI,HCT-15 colon,> 100 µM
same,TGI,HL-60(TB) leukemia,40 µM
same,TGI,HOP-92 NSCLC,79.5 µM
same,TGI,HS 578T breast,91.6 µM
same,TGI,HT29 colon,> 100 µM
same,TGI,IGROV1 ovarian,> 100 µM
same,TGI,K-562 leukemia,> 100 µM
same,TGI,KM12 colon,> 100 µM
same,TGI,LOX IMVI melanoma,> 100 µM
same,TGI,M14 melanoma,> 100 µM
same,TGI,MALME-3M melanoma,> 100 µM
same,TGI,MCF7 breast,> 100 µM
same,TGI,MDA-MB-231 breast,> 100 µM
same,TGI,MDA-MB-435,> 100 µM
same,TGI,MDA-N,> 100 µM
same,TGI,MOLT-4 leukemia,42.4 µM
same,TGI,NCI-H226 lung,65.3 µM
same,TGI,NCI-H23 lung,87.9 µM
same,TGI,NCI-H460 lung,> 100 µM
same,TGI,NCI-H522 lung,> 100 µM
same,TGI,NCI/ADR-RES ovarian,> 100 µM
same,TGI,OVCAR-3 ovarian,> 100 µM
same,TGI,OVCAR-4 ovarian,> 100 µM
same,TGI,OVCAR-5 ovarian,> 100 µM
same,TGI,OVCAR-8 ovarian,> 100 µM
same,TGI,PC-3 prostate,> 100 µM
same,TGI,RPMI-8226 leukemia,87 µM
same,TGI,RXF 393 renal,86.2 µM
same,TGI,SF-295 CNS,> 100 µM
same,TGI,SF-539 CNS,> 100 µM
same,TGI,SK-MEL-2 melanoma,42.6 µM
same,TGI,SK-MEL-28 melanoma,> 100 µM
same,TGI,SK-MEL-5 melanoma,33.7 µM
same,TGI,SK-OV-3 ovarian,84.8 µM
same,TGI,SNB-19 CNS,> 100 µM
same,TGI,SNB-75 CNS,93.9 µM
same,TGI,SR leukemia,88.2 µM
same,TGI,SW-620 colon,> 100 µM
same,TGI,T-47D breast,> 100 µM
same,TGI,TK-10 renal,> 100 µM
same,TGI,U251 CNS,> 100 µM
same,TGI,UACC-257 melanoma,> 100 µM
same,TGI,UACC-62 melanoma,89.2 µM
same,TGI,UO-31 renal,> 100 µM
O=c1cc(-c2ccccc2)c2ccc(O)c(CN(CCCl)CCCl)c2o1,TGI,786-0 renal,39.3 µM
same,TGI,A498 renal,41.6 µM
same,TGI,A549 NSCLC,57.3 µM
same,TGI,ACHN renal,64 µM
same,TGI,BT-549 breast,25 µM
same,TGI,CAKI-1 renal,29.1 µM
same,TGI,CCRF-CEM leukemia,20.7 µM
same,TGI,COLO 205 colon,25.9 µM
same,TGI,DU-145 prostate,> 100 µM
same,TGI,EKVX NSCLC,59.1 µM
same,TGI,HCC-2998 colon,25 µM
same,TGI,HCT-116 colon,43.1 µM
same,TGI,HCT-15 colon,45.2 µM
same,TGI,HL-60(TB) leukemia,40.4 µM
same,TGI,HOP-62 NSCLC,33.2 µM
same,TGI,HOP-92 NSCLC,56.8 µM
same,TGI,HS 578T breast,69.5 µM
same,TGI,HT29 colon,26 µM
same,TGI,IGROV1 ovarian,33.8 µM
same,TGI,K-562 leukemia,91.5 µM
same,TGI,KM12 colon,35.8 µM
same,TGI,LOX IMVI melanoma,22.1 µM
same,TGI,M14 melanoma,42 µM
same,TGI,MALME-3M melanoma,41.3 µM
same,TGI,MCF7 breast,> 100 µM
same,TGI,MDA-MB-231 breast,33.2 µM
same,TGI,MDA-MB-435,39.9 µM
same,TGI,MDA-N,35.1 µM
same,TGI,MOLT-4 leukemia,47.8 µM
same,TGI,NCI-H226 lung,32.5 µM
same,TGI,NCI-H23 lung,41.7 µM
same,TGI,NCI-H460 lung,> 100 µM
same,TGI,NCI-H522 lung,35.7 µM
same,TGI,NCI/ADR-RES ovarian,> 100 µM
same,TGI,OVCAR-3 ovarian,40.4 µM
same,TGI,OVCAR-4 ovarian,> 100 µM
same,TGI,OVCAR-5 ovarian,34.1 µM
same,TGI,OVCAR-8 ovarian,48.2 µM
same,TGI,PC-3 prostate,36.8 µM
same,TGI,RPMI-8226 leukemia,47.8 µM
same,TGI,RXF 393 renal,30.1 µM
same,TGI,SF-268 CNS,44.5 µM
same,TGI,SF-295 CNS,29.7 µM
same,TGI,SF-539 CNS,44.4 µM
same,TGI,SK-MEL-2 melanoma,59.8 µM
same,TGI,SK-MEL-28 melanoma,36.7 µM
same,TGI,SK-MEL-5 melanoma,31 µM
same,TGI,SN12C renal,38.5 µM
same,TGI,SNB-19 CNS,47 µM
same,TGI,SNB-75 CNS,38.9 µM
same,TGI,SR leukemia,33.1 µM
same,TGI,SW-620 colon,69.7 µM
same,TGI,T-47D breast,55.6 µM
same,TGI,U251 CNS,56.9 µM
same,TGI,UACC-257 melanoma,33.9 µM
same,TGI,UACC-62 melanoma,51.6 µM
same,TGI,UO-31 renal,36.9 µM
CC1=NC(C)(C)[N+]([O-])=C1,TGI,786-0 renal,> 10 µM
same,TGI,A498 renal,> 10 µM
same,TGI,A549 NSCLC,> 10 µM
same,TGI,ACHN renal,> 10 µM
same,TGI,BT-549 breast,> 10 µM
same,TGI,CAKI-1 renal,> 10 µM
same,TGI,CCRF-CEM leukemia,> 10 µM
same,TGI,COLO 205 colon,> 10 µM
same,TGI,DU-145 prostate,> 10 µM
same,TGI,EKVX NSCLC,> 10 µM
same,TGI,HCC-2998 colon,> 10 µM
same,TGI,HCT-116 colon,> 10 µM
same,TGI,HCT-15 colon,> 10 µM
same,TGI,HL-60(TB) leukemia,> 10 µM
same,TGI,HOP-62 NSCLC,> 10 µM
same,TGI,HOP-92 NSCLC,> 10 µM
same,TGI,HS 578T breast,> 10 µM
same,TGI,HT29 colon,> 10 µM
same,TGI,IGROV1 ovarian,> 10 µM
same,TGI,K-562 leukemia,> 10 µM
same,TGI,KM12 colon,> 10 µM
same,TGI,LOX IMVI melanoma,> 10 µM
same,TGI,M14 melanoma,> 10 µM
same,TGI,MALME-3M melanoma,> 10 µM
same,TGI,MCF7 breast,> 10 µM
same,TGI,MDA-MB-231 breast,> 10 µM
same,TGI,MDA-MB-435,> 10 µM
same,TGI,MDA-N,> 10 µM
same,TGI,MOLT-4 leukemia,> 10 µM
same,TGI,NCI-H226 lung,> 10 µM
same,TGI,NCI-H23 lung,> 10 µM
same,TGI,NCI-H460 lung,> 10 µM
same,TGI,NCI-H522 lung,> 10 µM
same,TGI,NCI/ADR-RES ovarian,> 10 µM
same,TGI,OVCAR-3 ovarian,> 10 µM
same,TGI,OVCAR-5 ovarian,> 10 µM
same,TGI,OVCAR-8 ovarian,> 10 µM
same,TGI,PC-3 prostate,> 10 µM
same,TGI,RPMI-8226 leukemia,> 10 µM
same,TGI,RXF 393 renal,> 10 µM
same,TGI,SF-268 CNS,> 10 µM
same,TGI,SF-295 CNS,> 10 µM
same,TGI,SF-539 CNS,> 10 µM
same,TGI,SK-MEL-2 melanoma,> 10 µM
same,TGI,SK-MEL-28 melanoma,> 10 µM
same,TGI,SK-MEL-5 melanoma,> 10 µM
same,TGI,SK-OV-3 ovarian,> 10 µM
same,TGI,SN12C renal,> 10 µM
same,TGI,SNB-19 CNS,> 10 µM
same,TGI,SNB-75 CNS,4.85 µM
same,TGI,SR leukemia,> 10 µM
same,TGI,SW-620 colon,> 10 µM
same,TGI,T-47D breast,> 10 µM
same,TGI,TK-10 renal,> 10 µM
same,TGI,U251 CNS,> 10 µM
same,TGI,UACC-257 melanoma,> 10 µM
same,TGI,UACC-62 melanoma,> 10 µM
same,TGI,UO-31 renal,> 10 µM

# From PubChem BioAssay (NCI)
